Assay results taken from US8338404B2, “Composition and method for reducing allergen” (Kyowa Hakko Bio Co., Ltd., priority 2007, dated 2012).

Molecular target: T1, mite allergen Derf2 (Dermatophagoides farinae, UniProt Q00855)
T1 construct: mite allergen Derf2 contained in standard house dust; from tissue; host or cells: standard house dust (natural mite allergen, not recombinant)
T1 sequence (Q00855 18-146): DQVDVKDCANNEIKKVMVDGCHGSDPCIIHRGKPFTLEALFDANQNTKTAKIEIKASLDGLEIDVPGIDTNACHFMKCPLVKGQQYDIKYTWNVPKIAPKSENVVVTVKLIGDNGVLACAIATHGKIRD
Test: Effects of processed fiber for reducing mite allergen (sandwich ELISA)
Assay type: biochemical
Settings: 5% treatment solution, 1 hour; for Mite allergen concentration: 1 ml mite allergen buffer
Experimental: At the outset, anti-Derf2 monoclonal antibody 15E11, which was diluted to 2 μg/ml in phosphate buffer (pH 7.4, containing 0.1% by weight of NaN3) was applied to the F16 Maxisorp Nunc-Immuno Module plate (NUNC) in amounts of 100 μl per well and subjected to sensitization at 4° C. for at least 1 day. After sensitization, the liquid was removed, a blocking reagent (1% by weight of bovine serum albumin and phosphate buffer (pH 7.2, containing 0.1% by weight of NaN3)) was added in amounts of 100 μl per well, and the reaction was allowed to proceed at 37° C. for 60 minutes. After the reaction, the plate was washed in phosphate buffer (pH 7.2, containing 0.1% by weight of polyoxyethylene (20) sorbitan monolaurate). Subsequently, the sample resulting from the reaction of mite allergens with the aforementioned solution was added dropwise thereto in amounts of 100 μl per well, and the reaction was allowed to proceed at 37° C. for 60 minutes.
After the reaction, the plate was washed in phosphate buffer (pH 7.2, containing 0.1% by weight of polyoxyethylene (20) sorbitan monolaurate). The peroxidase-labeled anti-Derf2 monoclonal antibody was dissolved to 200 μg/ml in distilled water, the resultant was diluted 1,000-fold with phosphate buffer (pH 7.2, containing 1% by weight of bovine serum albumin and 0.1% by weight of polyoxyethylene (20) sorbitan monolaurate), and the resulting solution was added in amounts of 100 μl per well. The reaction was allowed to proceed at 37° C. for 60 minutes, and the plate was first washed with phosphate buffer (pH 7.2, containing 0.1% by weight of polyoxyethylene (20) sorbitan monolaurate) and then with distilled water. Ortho-phenylenediamine dihydrochloride (26 mg tablet, Sigma Chemical Co.) and a hydrogen peroxide solution (13 μl) were added to 13 ml of 0.1 mol/l phosphate buffer (pH 6.2), the resultant was added in amounts of 100 μl per well, and the reaction was allowed to proceed at 37° C. for 5 minutes. Immediately thereafter, 50 μl each of 2 mol/l H2SO4 was introduced so as to terminate the reaction, and the absorbance (OD 490 nm) was assayed using a microplate spectrophotometer (Bio-Rad Laboratories Inc.)
The allergen-reducing fabric obtained in Example 8 was tested in terms of the effects of allergen reduction. As a control, a white cotton broadcloth and polyethylene terephthalate (PET) cloth were soaked via a padding method in an aqueous solution of 5% tannic acid (an equivalent of JP Patent Publication (kokai) No. 61-44821 A (1986)), the clothes were dried at 110° C. for 2 minutes, and the resultants were tested in terms of the effects of allergen reduction.
The clothes (5 cm×5 cm each) were introduced into reclosable plastic bags, 1 ml of phosphate buffer (pH 7.2) of mite allergen was added thereto, and the resultants were allowed to stand for 1 hour. The centrifuged samples were subjected to enzyme immunoassay (i.e., sandwich ELISA) in the same manner as in Test Example 1 to inspect the effects of reducing mite allergen Derf2.

[1] = PET cloth 5 cm×5 cm, not treated: 970 ng/ml
[2] = cotton broadcloth 5 cm×5 cm, not treated: 720 ng/ml

Compound	Mite allergen concentration [1] [ng/mL]	Reduction (PET cloth 5 cm×5 cm) [%]	Mite allergen concentration [2] [ng/mL]	Reduction (cotton broadcloth 5 cm×5 cm) [%]
CC(=O)N1C[C@H](O)C[C@H]1C(=O)O [N-acetyl-trans-4-hydroxy-L-proline]	2.3	99.8	3.5	99.5
O=C(OC[C@H]1O[C@@H](OC(=O)c2cc(O)c(O)c(OC(=O)c3cc(O)c(O)c(O)c3)c2)[C@H](OC(=O)c2cc(O)c(O)c(OC(=O)c3cc(O)c(O)c(O)c3)c2)[C@@H](OC(=O)c2cc(O)c(O)c(OC(=O)c3cc(O)c(O)c(O)c3)c2)[C@@H]1OC(=O)c1cc(O)c(O)c(OC(=O)c2cc(O)c(O)c(O)c2)c1)c1cc(O)c(O)c(OC(=O)c2cc(O)c(O)c(O)c2)c1 [tannic acid]	190	80	120	83
